Square brackets hold non-standard residues; d marks the D form. Ends that are not written are not given here.

In one assay the test system is human dermal fibroblasts. Description: UVA-induced intracellular amplification of ROS (dihydrorhodamine 123, flow cytometry). In kind it is cell-based. Conditions: for effect on UVA-induced intracellular amplification of ROS compared with vitamin C (ascorbate): peptide 10^-8M vs vitamin C 10^-2M, FIG. 2; for effect on UVA-induced intracellular amplification of ROS ("oxidative stress"): peptide 10^-8 M, 24 h pre-incubation, UVA 10 J/cm^2, human dermal fibroblasts, FIG. 1, p<0.001. On the procedure:
The modulating effect of the tripeptides Lys-Pro-Val (KPV), Lys-D-Pro-Thr (KPT) and Thyrotropin Releasing Hormones (TRH, Protirelin, Thyoliberin, pGlu-His-Pro) was examined on human dermal fibroblasts that were seeded into 3.5 cm^2 tissue culture dishes in a density of 150,000 per dish in […] medium. Two days after seeding the cells, the medium supplemented with 10% foetal calf serum, 1% L-glutamine and 1% penicillin/streptomycin was exchanged with serum-free RPMI medium and pre-incubated for 24 hours with KPV, […] Subsequently, the cells were exposed to a physiological dose of UVA radiation (10 J/cm^2). Immediately after radiation, the cells were incubated with 5 μM dihydrorhodamine 123 plus 5 mM glucose in phosphate buffer (PBS) for 30 minutes. Subsequently, the cells were trypsinized, resuspended in PBS with 5 mM glucose and analyzed by means of flow cytometry (FACS, FACSCalibur with 488 nm argon laser). The above dihydrorhodamine probe is oxidized in the presence of intracellular ROS into green fluorescent […] and, thus, can be measured fluorometrically. A total of 10×10^3 cells per probe were analyzed and evaluated using CELL-QUEST software. The median of the FL-1 channel was used as parameter for the intracellular ROS amount, since it represents the maximum number of cells with the highest fluorescence. Duplicate and triplicate analyses were carried out and all assays were reproduced three times in independent experiments.
For orientation: Flow cytometry measures light scatter and fluorescence of single cells or particles in a stream.

The subject of the next assay is B16.F1 melanoma cells. Put plainly: Extracellular melanin accumulation (in situ melanin assay, optical density 405 nm). Conditions: 72 hrs; for melanotropic effect (extracellular melanin accumulation): peptides at 10^-6, 10^-8 and 10^-10 M, FIG. 3. In kind it is cell-based, mouse. From the text: It is also preferred that the compounds of the invention have no or merely a negligible melanotropic effect. “Melanotropic effect” means that the compound induces the extracellular melanin accumulation in a cell assay in accordance with the method described in the appended example 2 and/or in accordance with the method described in Siegrist and Eberle (Anal. Biochem. 1986; 159; 191-197), title “In situ melanin assay for MSH using mouse B16 melanoma cells in culture”. “No or negligible” means that the mean melanin accumulation which is induced by the compounds of the invention exceeds the mean melanin accumulation which is induced by at least one of the two compounds as exemplified in Example 2 by not more than about 40%, 30%, 20%, 15%, 10%, 5%, 2.5%, 2% or 1%, preferably under conditions which equate to or are identical with those set out in Example 2. The skilled person is able to justify which assay conditions/assays equate with the assay/conditions exemplified in the appended examples. The melanin accumulation evaluated in Example 2 is depicted in FIG. 3. The effect of the compounds of the invention on extracellular melanin accumulation is thus determinable by the methods disclosed herein.
To exclude a potential melanotropic effect of KPT and KPV, 2500 B16.F1 melanoma cells were seeded out on 96-well tissue culture plates in quintuplicate at a density of 2500 cells/well in regular culture medium. On the next day routine medium was changed to medium containing the above peptides at 10^−6, 10^−8 and 10^−10 M vs. medium containing the superpotent MSH analogue NDP-α-MSH (10^−8 M). The latter served as positive control while cells without any other stimulus served as negative control. Cells were then cultured for 72 hrs followed by photometric measurement of the optical density (wavelength 405 nm) of each well. This procedure measures the amount of extracellular melanin produced by the cells according to the well-established and described methodology by Siegrist & Eberle, Anal. Biochem. 1986; 159: 191-197.

`NC(=O)[C@@H]1CCCN1C(=O)[C@H](Cc1c[nH]cn1)NC(=O)[C@@H]1CCC(=O)N1` [TRH, L-Pyroglutamyl-L-histidyl-L-prolinamid]: in the assay with human dermal fibroblasts, the “antioxidative protective effects in human dermal fibroblasts (summary statement)” value (“antioxidative protective effects” below) is on record as “show antioxidative protective effects”, the “effect on UVA-induced intracellular amplification of ROS compared with vitamin C (ascorbate)” value is “comparable with that of vitamin C” and the “effect on UVA-induced intracellular amplification of ROS ("oxidative stress")” value (“effect … ("oxidative stress")” below) was “suppressed UVA-induced intracellular amplification of ROS”.

For Lys-Pro-Val [KPV], in the assay with human dermal fibroblasts, the “antioxidative protective effects” value is “show antioxidative protective effects” and the “effect … ("oxidative stress")” value is on record as “suppressed UVA-induced intracellular amplification of ROS”. Also, the “melanotropic effect (extracellular melanin accumulation)” value with B16.F1 melanoma cells is reported as “did not have any melanotropic effect”.

Regarding Lys-[dP]-Thr [KPT], in the assay with human dermal fibroblasts, the “antioxidative protective effects” value is recorded as “show antioxidative protective effects”, the “effect on UVA-induced intracellular amplification of ROS compared with vitamin C (ascorbate)” value is “comparable with that of vitamin C” and the “effect … ("oxidative stress")” value is given as “suppressed UVA-induced intracellular amplification of ROS”. Besides, the “melanotropic effect (extracellular melanin accumulation)” value with B16.F1 melanoma cells was “did not have any melanotropic effect”.

On to NDP-α-MSH [reference compound], for which, in the assay with B16.F1 melanoma cells (10^-8 M), the “melanotropic effect (extracellular melanin accumulation), positive control” value is recorded as “p<0.001 vs. control”.
